Source: ChEMBL document CHEMBL1201862, “PubChem BioAssay data set” (2004)
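Interpolation was linear, between the two tested concentrations surrounding the appropriate level; five concentrations were tested over 48 hours in 96-well plates. GI50: concentration for 50% inhibition of growth.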 Active and inactive are the calls of the source. Cut-off read from the data, not from the text of the source: active = GI50 up to about 1.1 µM and inactive = higher.

What was measured:
Assay in all cases: NCI-60 cell line screen, 48 h
ACHN = test system: ACHN
UO-31 = test system: UO-31
SNB-19 = test system: SNB-19
M14 = test system: M14
KM12 = test system: KM12
786-0 = test system: 786-0
CAKI-1 = test system: CAKI-1
OVCAR-5 = test system: OVCAR-5
RXF 393 = test system: RXF 393
MOLT-4 = test system: MOLT-4
SF-539 = test system: SF-539
SF-268 = test system: SF-268
LOX IMVI = test system: LOX IMVI
SK-MEL-2 = test system: SK-MEL-2
HCT-15 = test system: HCT-15
MDA-MB-435 = test system: MDA-MB-435
Hs-578T = test system: Hs-578T
DU-145 = test system: DU-145

| SMILES | GI50 (ACHN) | GI50 (UO-31) | GI50 (SNB-19) | GI50 (M14) | GI50 (KM12) | GI50 (786-0) | GI50 (CAKI-1) | GI50 (OVCAR-5) | GI50 (RXF 393) | GI50 (MOLT-4) | GI50 (SF-539) | GI50 (SF-268) | GI50 (LOX IMVI) | GI50 (SK-MEL-2) | GI50 (HCT-15) [µM] | GI50 (MDA-MB-435) | GI50 (Hs-578T) | GI50 (DU-145) |
| --- | --- | --- | --- | --- | --- | --- | --- | --- | --- | --- | --- | --- | --- | --- | --- | --- | --- | --- |
| Cn1cnc([N+](=O)[O-])c1Sc1nnc(-c2ccc(Cl)cc2)n1C | 15.1 µM (inactive) | 14.6 µM (inactive) | 98.2 µM (inactive) | 13.6 µM (inactive) | 20.1 µM (inactive) | > 10 µM (inactive) | 15.9 µM (inactive) | 20.5 µM (inactive) | 3.15 µM (inactive) | 6.78 µM (inactive) | 16.2 µM (inactive) | 20.3 µM (inactive) | 7.67 µM (inactive) | 15.5 µM (inactive) |  |  |  |  |
| Cc1ccc(NC(=O)CCC(=O)C2Cc3ccccc3C2=O)cc1C (stereo unspecified) | > 100 µM (inactive) | > 100 µM (inactive) | > 100 µM (inactive) | > 100 µM (inactive) | > 100 µM (inactive) | > 100 µM (inactive) | > 100 µM (inactive) | > 100 µM (inactive) | > 100 µM (inactive) | > 100 µM (inactive) | > 100 µM (inactive) | > 100 µM (inactive) | > 100 µM (inactive) | > 100 µM (inactive) | > 100 |  |  |  |
| CC(C)(CN1C(=O)C(Cl)=C(Cl)C1=O)CN1C(=O)C(Cl)=C(Cl)C1=O | 9.44 µM (inactive) | 31.6 µM (inactive) | 23 µM (inactive) | 16.6 µM (inactive) | 24.2 µM (inactive) | 11.7 µM (inactive) | 8.15 µM (inactive) | 19.8 µM (inactive) | 6 µM (inactive) | 0.966 µM (active) | 20.1 µM (inactive) | 19.1 µM (inactive) | 12.2 µM (inactive) | 18.8 µM (inactive) | 8.63 |  |  |  |
| Cc1nc(-n2nc(-c3ccccc3)cc2-c2ccccc2)sc1C(=O)/C=C/c1ccc(/C=C/C(=O)c2sc(-n3nc(-c4ccccc4)cc3-c3ccccc3)nc2C)cc1 | 19.9 µM (inactive) | 20.1 µM (inactive) | 21.8 µM (inactive) | 20 µM (inactive) | 18.8 µM (inactive) | 18.6 µM (inactive) | 22.2 µM (inactive) | 25.5 µM (inactive) | 22.8 µM (inactive) | 25.1 µM (inactive) | 19.2 µM (inactive) | 23.2 µM (inactive) | 20 µM (inactive) | 22.1 µM (inactive) | 34.3 |  |  |  |
| CCOC(=O)CCCO | > 100 µM (inactive) | > 100 µM (inactive) | > 100 µM (inactive) | > 100 µM (inactive) | > 100 µM (inactive) | > 100 µM (inactive) |  | > 100 µM (inactive) | > 100 µM (inactive) | > 100 µM (inactive) | > 100 µM (inactive) | > 100 µM (inactive) | > 100 µM (inactive) | > 100 µM (inactive) | > 100 |  |  |  |
| O=C(c1nc2ccccc2nc1O)C(O)c1ccco1 (stereo unspecified) | 54.5 µM (inactive) | 72.3 µM (inactive) | > 100 µM (inactive) | > 100 µM (inactive) | 76.4 µM (inactive) | > 100 µM (inactive) |  | > 100 µM (inactive) | > 100 µM (inactive) | > 100 µM (inactive) | > 100 µM (inactive) | > 100 µM (inactive) | > 100 µM (inactive) | > 100 µM (inactive) | 51.8 |  |  |  |
| O=[N+]([O-])c1ccc(C(O)/C(=N/O)c2nc3ccc(Cl)cc3nc2O)cc1 (stereo unspecified) | > 100 µM (inactive) | > 100 µM (inactive) | > 100 µM (inactive) | > 100 µM (inactive) | > 100 µM (inactive) | > 100 µM (inactive) | > 100 µM (inactive) |  | > 100 µM (inactive) | > 100 µM (inactive) | > 100 µM (inactive) | > 100 µM (inactive) | > 100 µM (inactive) | > 100 µM (inactive) | > 100 |  |  |  |
| O=c1c(Cl)c(Cl)cnn1CCCl | 0.904 µM (active) | 5.75 µM (inactive) | 7.03 µM (inactive) | 2.67 µM (inactive) | 14.4 µM (inactive) | 12.2 µM (inactive) | 2.27 µM (inactive) | 16.5 µM (inactive) | 2.09 µM (inactive) | 2.54 µM (inactive) | 14.1 µM (inactive) | 3.83 µM (inactive) | 2.86 µM (inactive) |  | 2.64 | 2.82 µM (inactive) | 3.25 µM (inactive) | 18.7 µM (inactive) |
| CCOC(=O)/C([O-])=C(\C(=O)OCC)[n+]1c(C)n(C)c2ccccc21 |  | > 100 µM (inactive) | > 100 µM (inactive) | > 100 µM (inactive) | > 100 µM (inactive) | > 100 µM (inactive) | > 100 µM (inactive) | > 100 µM (inactive) | > 100 µM (inactive) | > 100 µM (inactive) | > 100 µM (inactive) | > 100 µM (inactive) | > 100 µM (inactive) | > 100 µM (inactive) |  |  |  |  |
